Measured values taken from publication PMC5068966, “Lysosomal membrane glycoproteins bind cholesterol and contribute to lysosomal cholesterol export” (eLife, 2016).
Each block holds one compound with its values, some of them ahead of it.

Columns and labels:
LAMP2 [1] = biological target: T1, LAMP2 (Homo sapiens, UniProt P13473); assay: competition with […] 3H-cholesterol on purified protein; type: binding; design: soluble lumenal domain, human LAMP2 (1–375)
LAMP2 [2] = biological target: T1, LAMP2; assay: single-concentration ([…]) competition with 3H-cholesterol on purified protein; type: binding; design: soluble lumenal domain, human LAMP2 (1–375)
LAMP2 [3] = biological target: T1, LAMP2; assay: direct 3H-25-hydroxycholesterol binding to purified protein; competition with 3H-cholesterol; design: soluble lumenal domain, human LAMP2 (1–375)
LAMP1 = biological target: T2, LAMP1 (Homo sapiens, UniProt P11279); assay: 3H-cholesterol binding to purified His-tagged protein on Ni-NTA
T2 construct: soluble lumenal domain, human LAMP1(1–382)
T2 sequence (P11279 1-382): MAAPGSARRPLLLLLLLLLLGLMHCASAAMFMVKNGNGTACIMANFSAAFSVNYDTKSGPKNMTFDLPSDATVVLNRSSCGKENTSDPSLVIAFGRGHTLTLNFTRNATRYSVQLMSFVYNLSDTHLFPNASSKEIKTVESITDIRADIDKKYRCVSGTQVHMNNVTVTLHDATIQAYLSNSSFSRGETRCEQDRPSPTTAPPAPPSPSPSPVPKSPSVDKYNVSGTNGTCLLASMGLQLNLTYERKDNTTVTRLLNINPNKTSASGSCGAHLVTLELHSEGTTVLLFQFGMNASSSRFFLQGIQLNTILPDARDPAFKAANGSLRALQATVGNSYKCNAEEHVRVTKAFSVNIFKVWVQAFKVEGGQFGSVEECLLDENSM

LAMP2 [4] = biological target: T1, LAMP2; assay: 3H-cholesterol binding to purified His-tagged protein on Ni-NTA, with cold competition; bound cholesterol also identified by TLC and LC/MS; design: soluble lumenal domain, human LAMP2 (1–375); also domain 1 (1–231) and domain 2
AF647 labeled-NPC2 = AF647 labeled-NPC2 (UniProt P61916); assay: MST; 6 nM AF647 labelled NPC2, 16 two-fold dilutions of soluble LAMP2 or RNase B; 50 mM MES pH 5.5, 150 mM NaCl, 0.004% NP-40; in 1 µM cholesterol sulfate
Chain of AF647 labeled-NPC2 (P61916 20-151): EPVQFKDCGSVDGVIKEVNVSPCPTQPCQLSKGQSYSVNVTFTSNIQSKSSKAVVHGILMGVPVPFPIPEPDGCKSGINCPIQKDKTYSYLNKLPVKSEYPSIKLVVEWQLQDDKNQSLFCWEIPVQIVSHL

[5] = biological target: AF647 labeled His6-NPC1 N-terminal domain (UniProt O15118); assay: MST; 6 nM AF647 labelled protein, 16 two-fold dilutions of soluble LAMP2; 50 mM MES pH 5.5, 150 mM NaCl, 0.004% NP-40; in 1 µM cholesterol; fluorescence read for NPC1 N-terminal domain, thermophoresis for RNase B
Chain of AF647 labeled His6-NPC1 N-terminal domain (O15118 whole entry, the tested form may be a part): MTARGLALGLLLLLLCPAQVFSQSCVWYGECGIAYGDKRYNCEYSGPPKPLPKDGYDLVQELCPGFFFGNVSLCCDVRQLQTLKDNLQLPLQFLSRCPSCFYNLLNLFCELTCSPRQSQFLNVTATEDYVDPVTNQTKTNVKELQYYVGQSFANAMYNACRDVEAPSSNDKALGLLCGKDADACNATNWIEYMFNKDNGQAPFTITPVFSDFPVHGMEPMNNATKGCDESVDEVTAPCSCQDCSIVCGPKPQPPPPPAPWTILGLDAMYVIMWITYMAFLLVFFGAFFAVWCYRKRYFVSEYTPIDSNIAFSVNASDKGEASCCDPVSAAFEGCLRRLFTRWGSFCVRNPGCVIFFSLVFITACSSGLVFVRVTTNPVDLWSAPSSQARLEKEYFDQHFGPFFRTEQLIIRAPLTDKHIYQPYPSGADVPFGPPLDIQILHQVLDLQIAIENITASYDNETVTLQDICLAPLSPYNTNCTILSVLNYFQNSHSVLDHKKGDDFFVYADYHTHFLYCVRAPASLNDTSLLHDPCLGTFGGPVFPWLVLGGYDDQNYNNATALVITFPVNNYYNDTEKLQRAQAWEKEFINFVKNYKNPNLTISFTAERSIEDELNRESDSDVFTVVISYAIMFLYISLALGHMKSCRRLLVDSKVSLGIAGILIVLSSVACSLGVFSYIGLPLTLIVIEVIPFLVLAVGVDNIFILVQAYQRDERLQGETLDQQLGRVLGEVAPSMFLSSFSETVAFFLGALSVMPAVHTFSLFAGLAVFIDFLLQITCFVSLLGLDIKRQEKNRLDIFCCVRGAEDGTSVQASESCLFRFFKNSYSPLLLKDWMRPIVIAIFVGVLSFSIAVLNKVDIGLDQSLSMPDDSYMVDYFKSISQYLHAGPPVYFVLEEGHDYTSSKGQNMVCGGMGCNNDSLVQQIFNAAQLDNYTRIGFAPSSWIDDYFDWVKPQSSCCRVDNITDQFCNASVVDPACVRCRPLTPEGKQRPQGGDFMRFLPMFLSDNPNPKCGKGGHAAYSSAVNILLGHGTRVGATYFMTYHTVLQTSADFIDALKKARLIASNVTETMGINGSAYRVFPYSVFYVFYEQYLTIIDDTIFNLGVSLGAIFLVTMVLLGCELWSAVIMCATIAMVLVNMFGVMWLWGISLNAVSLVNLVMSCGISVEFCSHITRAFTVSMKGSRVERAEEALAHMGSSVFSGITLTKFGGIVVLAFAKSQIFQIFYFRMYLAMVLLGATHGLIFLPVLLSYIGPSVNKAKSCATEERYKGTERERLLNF

T1 sequence (P13473 29-375): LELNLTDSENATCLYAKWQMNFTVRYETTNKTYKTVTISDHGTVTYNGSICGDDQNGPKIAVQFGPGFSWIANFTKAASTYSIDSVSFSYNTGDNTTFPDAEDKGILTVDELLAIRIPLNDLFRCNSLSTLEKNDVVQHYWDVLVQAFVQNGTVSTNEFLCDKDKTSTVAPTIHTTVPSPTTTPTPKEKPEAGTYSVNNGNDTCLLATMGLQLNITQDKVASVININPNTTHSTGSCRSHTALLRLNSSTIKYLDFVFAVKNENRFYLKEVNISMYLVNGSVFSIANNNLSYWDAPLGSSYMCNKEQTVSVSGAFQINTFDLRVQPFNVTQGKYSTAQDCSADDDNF

Compound: CC(C)CCC[C@@H](C)[C@H]1CC[C@H]2[C@@H]3C(=O)C=C4C[C@@H](O)CC[C@]4(C)[C@H]3CC[C@]12C [7-ketocholesterol]
competition with 50 nM 3H-cholesterol on purified protein (LAMP2 [1]): 7-ketocholesterol (Figure 2D), but not cholesterol sulfate (Figure 2A), compete with ^3H-cholesterol for binding to LAMP2 protein

Compound: CC(C)C(O)CC[C@@H](C)[C@H]1CC[C@H]2[C@@H]3CC=C4C[C@@H](O)CC[C@]4(C)[C@H]3CC[C@]12C (stereo partly shown) [24-HC, 24-hydroxycholesterol]
single-concentration (30 μM) competition with 3H-cholesterol on purified protein (LAMP2 [2]): ^3H-cholesterol binding was competed by unlabeled cholesterol, 24-hydroxycholesterol, but not cholesterol sulfate (Figure 1G)

Compound: C[C@H](CCCC(C)(C)O)[C@H]1CC[C@H]2[C@@H]3CC=C4C[C@@H](O)CC[C@]4(C)[C@H]3CC[C@]12C [25-hydroxycholesterol]
direct 3H-25-hydroxycholesterol binding to purified protein; competition with 3H (LAMP2 [3]): LAMP2 also bound ^3H-25-hydroxycholesterol with similar apparent affinity as cholesterol; binding was competed by excess cold 25-hydroxycholesterol

Compound: CC(C)CCC[C@@H](C)[C@H]1CC[C@H]2[C@@H]3CC=C4C[C@@H](O)CC[C@]4(C)[C@H]3CC[C@]12C [cholesterol]
3H-cholesterol binding to purified His-tagged protein on Ni-NTA (LAMP1): Soluble, purified, LAMP1 and LAMP2 proteins appeared to bind ^3H-cholesterol saturably
3H-cholesterol binding to purified His-tagged protein on Ni-NTA, with cold compe (LAMP2 [4]): Soluble, purified, LAMP1 and LAMP2 proteins appeared to bind ^3H-cholesterol saturably

Kd (AF647 labeled-NPC2): 122 nM
Kd [5]: 6 nM
Compound: full length, soluble human LAMP2 (1-375) (from UniProt P13473 29-375) (domain or fragment)
